The term IC50 denotes the midpoint of a concentration-inhibition curve.

45 compounds from patent publication US8431596B2 (Cancer Research Technology Limited, priority 2007, dated 2013) can be followed below.

In this test the target is T1, AXL (human catalytic domain) (Homo sapiens, UniProt P30530).
T1 construct: purchased Upstate Ltd. 14-512
T1 sequence (P30530 473-894): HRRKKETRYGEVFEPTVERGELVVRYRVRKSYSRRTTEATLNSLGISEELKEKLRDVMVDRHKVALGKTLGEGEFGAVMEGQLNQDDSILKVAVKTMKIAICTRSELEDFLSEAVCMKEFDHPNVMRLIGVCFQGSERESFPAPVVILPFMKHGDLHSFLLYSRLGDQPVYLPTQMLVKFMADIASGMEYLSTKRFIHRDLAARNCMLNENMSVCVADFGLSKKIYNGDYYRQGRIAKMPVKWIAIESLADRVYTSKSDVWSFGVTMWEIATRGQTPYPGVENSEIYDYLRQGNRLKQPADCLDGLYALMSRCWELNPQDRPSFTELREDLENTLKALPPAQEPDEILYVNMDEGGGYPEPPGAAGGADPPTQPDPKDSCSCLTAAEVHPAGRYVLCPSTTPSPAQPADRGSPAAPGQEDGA
Description: AXL (human catalytic domain) Enzyme Activity Assay (IMAP fluorescence polarisation). The class given is biochemical. How it is done:
Biological Methods AXL (human catalytic domain) Enzyme Activity Assay Reagents
Kinase Assay Reaction Buffer: This consisted of 20 mM HEPES pH 7.0, 10 mM MgCl2, 1 mM DTT, […], 0.01% Triton X100 (v/v), and 0.01% BSA (w/v). All buffer components were purchased from Sigma-Aldrich at reagent grade or higher.
Kinase: Recombinant AXL isoform 1 (aa473-894 corresponding to Genbank Accession Number NP 068713) at 2 mg/mL (20.8 μM) was purchased from Upstate Ltd. (Product code 14-512, lot #28164U). The enzyme was stored at −80° C. and a working stock was prepared to a concentration of 30 nM by diluting 20.8 μM stock 1:693 in cold (4° C.) 1× Reaction Buffer. Final enzyme concentration in the assay was 15 nM.
Substrate: Fluorescein labelled CSK-tide 5FAM-[…]-NH2 was obtained from Molecular Devices (Product code R7270) and used at a working concentration of 200 nM by diluting the 100 μM stock 1:500 in 1× Reaction Buffer in a mix with the enzyme. A negative control (lacking enzyme) was prepared at the same concentrations. Final substrate concentration in the assay was 100 nM.
ATP: Supplied by Sigma (product code A-7699). A 100 mM ATP stock was prepared in […] and used at a working concentration of 375 μM by diluting the 100 mM stock 1:266.6 in Reaction Buffer. Final ATP concentration in the assay was 150 μM; this concentration represents the KM.ATP for this enzyme calculated in this assay.
IMAP Reagents: IMAP screening express kit was obtained from Molecular Devices (product code R8127). The binding reagent was gently re-suspended before diluting by 1:1000 in buffer (Binding Buffer is supplied as a 5× stock and so was diluted with water prior to use—this assay used 40% buffer A and 60% buffer B) and then vortexed before addition to wells. The binding reagent was used at a final dilution of 1:1333.
1 μL samples of test compounds in 10% DMSO/water were added to “test” wells by dry-spotting using a Matrix Platemate Plus. 5 μL Kinase/Substrate in Reaction Buffer were added to columns 1-22 of a Corning black low binding 384 well #6754 (90 μL volume) microplate to give 12 nM and 100 nM reaction concentration respectively. 5 μL substrate in Reaction Buffer was added to columns 23 and 24 to give 100 nM reaction concentration. 4 μL ATP in Reaction Buffer was added to all wells to give 150 μM reaction concentration. The reaction mixture was then incubated at room temperature for 60 minutes. The incubation period was followed by the addition of 20 μL IMAP Binding Reagent in Binding Buffer to all wells. The IMAP reaction detection was further incubated at room temperature overnight. The FP on a Tecan Ultra Plate reader was recorded as a single read at Ex485 Em535.
Percentage inhibition was calculated based on activity of the test sample minus the average values in the blank wells relative to the average values measured in control wells minus the average values in the blank wells.
IC50 values were calculated from 10 point dose sigmoid ‘dose-response’ curves using XIfit software (IDBS Inc, USA). Data were fitted to a 4 parameter logistic model/sigmoidal dose response defined by the following equation:
[formula] where: • A=fit minimum (locked to 0); • B=fit maximum (locked to 100); • C=fit midpoint (pre-fit to 1); and • D=slope at linear portion of curve, hillslope (pre-fit to 0.1).
The value for C represents the IC50 of the test compound.

[1] abbreviates: further data set (WW-001 through WW-169, XX-001 through XX-469, YY-001 through YY-016, ZZ-001 through ZZ-003), 150 μM ATP.
Where [2] appears, read: first data set, recombinant AXL isoform 1 aa473-894, 150 μM ATP.

In turn, `c1cc(-c2ccsc2)cc(-c2cccc3nc(Nc4ccc(OCCN5CCCC5)cc4)nn23)c1` [XX-166] came in with an IC50 under setting [1] of 0.1 to 1 µM.

For the compound `CNC(=O)COc1ccc(Nc2nc3cccc(-c4ccc(OC)cc4)n3n2)cc1` [XX-035], the IC50 under setting [2] lay in the range of 1 to 10 µM and the IC50 under setting [1] is no more than 0.1 µM.

For the compound `CN(C)CCOc1cc(Nc2nc3cccc(-c4ccc5c(c4)OCCO5)n3n2)ccn1` [XX-079], the IC50 by setting is: under setting [2], less than 1 µM; under setting [1], no more than 0.1 µM.

With `CC(C)Oc1cccc(-c2cccc3nc(NC(=O)C4CC4)nn23)c1` [WW-152], the IC50 reads like this: under setting [2], 1 to 10 µM; under setting [1], 1 to 10 µM.

`Cc1cc(COc2cccc(-c3cccc4nc(Nc5ccc(OCCN6CCCC6)cc5)nn34)c2)nn1C` [XX-460]: under setting [1], the IC50 fell in the range of 0.1 to 1 µM.

With `COc1ccc(-c2cccc3nc(Nc4ccc(OC[C@H](c5ccccc5)N5CCCC5)cc4)nn23)cc1` [XX-413], the IC50 under setting [1] lay in the range of 0.1 to 1 µM.

Under setting [1], `COc1ccc(-c2cccc3nc(Nc4ccc(OCCN5CCCC5)cc4)nn23)nc1` [XX-235] gave an IC50 of 0.1 to 1 µM.

Take `O=C(Nc1nc2cccc(NCCc3c[nH]c4ccccc34)n2n1)C1CC1` [WW-077]: the IC50 lay in the range of 1 to 10 µM under setting [2] and 1 to 10 µM under setting [1].

As for `O=C(Nc1nc2cccc(-c3ccc(C(F)(F)F)cc3)n2n1)C1CC1` [WW-031], the IC50 fell in the range of 1 to 10 µM under setting [2] and 1 to 10 µM under setting [1].

Turning to `c1cc(-c2ccc3occc3c2)n2nc(Nc3ccc(OCCN4CCCC4)cc3)nc2c1` [XX-020], the IC50 is, setting by setting: under setting [2], less than 1 µM; under setting [1], no more than 0.1 µM.

Under setting [1], `FC(F)(F)c1ccc(CNc2cccc(-c3cccc4nc(Nc5ccc(OCCN6CCCC6)cc5)nn34)c2)o1` [XX-448] gave an IC50 of 0.1 to 1 µM.

Consider `CN(C)CCNC(=O)c1ccc(Nc2nc3cccc(-c4ccc5c(c4)OCO5)n3n2)cc1` [XX-087], for which the IC50 by setting is: under setting [2], less than 1 µM; under setting [1], 0.1 to 1 µM.

With `CC(C)Cn1cc(-c2cccc3nc(NC(=O)C4CC4)nn23)cn1` [WW-108], the IC50 runs as follows: under setting [2], 1 to 10 µM; under setting [1], 1 to 10 µM.

For `CN(C)c1ccc(-c2cccc3nc(Nc4ccc(OCCN5CCCC5)cc4)nn23)cn1` [XX-198], the half-inhibitory concentration (IC50) under setting [1] was 0.1 to 1 µM.

For the compound `c1cc(NCc2ccco2)cc(-c2cccc3nc(Nc4ccc(OCCN5CCCC5)cc4)nn23)c1` [XX-257], the 50% inhibitory concentration (IC50) under setting [1] fell in the range of 0.1 to 1 µM.

Under setting [1], `O=S(=O)(Cc1cccc(C(F)(F)F)c1)n1cc(-c2cccc3nc(Nc4ccc(OCCN5CCCC5)cc4)nn23)cn1` [XX-287] yielded an IC50 of 0.1 to 1 µM.

As for `O=C(Nc1nc2cccc(-c3ccc(OCC4CC4)cc3)n2n1)C1CC1` [WW-121], the half-maximal inhibitory concentration (IC50) was in the range of 1 to 10 µM under setting [2] and 1 to 10 µM under setting [1].

On to `COc1ccc(-c2cccc3nc(Nc4cccc(N)c4)nn23)cc1` [XX-061, N-[5-(4-Methoxy-phenyl)-[1,2,4]triazolo[1,5-a]pyridin-2-yl]-benzene-1,3-diamine], for which the IC50 was 1 to 10 µM under setting [2] and 1 to 10 µM under setting [1].

`COc1ccc(-c2cccc3nc(Nc4ccc(OCCN5CCCCC5)cc4)nn23)cc1` [XX-019]: the IC50 reads like this: under setting [2], less than 1 µM; under setting [1], no more than 0.1 µM.

`COc1ncc(-c2cccc3nc(Nc4ccc(OCCN5CCCC5)cc4)nn23)cn1` [XX-197] gave an IC50 under setting [1] of 1 to 10 µM.

As for `CC(C)Oc1cccc(-c2cccc3nc(Nc4ccc(OCCN5CCCC5)cc4)nn23)c1` [XX-331], under setting [1], the IC50 was 1 to 10 µM.

Under setting [1], `c1ccc2sc(-c3cccc4nc(Nc5ccc(OCCCN6CCCCC6)cc5)nn34)cc2c1` [XX-422] had a concentration for half-maximal inhibition (IC50) of 0.1 to 1 µM.

On to `NC(=O)c1ccc(-c2cccc3nc(NC(=O)C4CC4)nn23)cc1` [WW-019], for which the IC50 was in the range of 1 to 10 µM under setting [2] and 1 to 10 µM under setting [1].

As to `COc1ccc2nc(Nc3ccc(OCCN4CCCC4)cc3)nn2c1-c1ccc2c(c1)OCCO2` [XX-323, [5-(2,3-Dihydro-benzo[1,4]dioxin-6-yl)-6-methoxy-[1,2,4]triazolo[1,5-a]pyridin-2-yl]-[4-(2-pyrrolidin-1-yl-ethoxy)-phenyl]-amine], under setting [1], the half-inhibitory concentration (IC50) was in the range of 1 to 10 µM.

Turning to `CC(C)CS(=O)(=O)n1cc(-c2cccc3nc(Nc4ccc(OCCN5CCCC5)cc4)nn23)cn1` [XX-284], the IC50 under setting [1] is 0.1 to 1 µM.

In the case of `NC(=O)c1cccc(-c2cccc3nc(Nc4ccc(OCCN5CCCC5)cc4)nn23)c1` [XX-183], the IC50 under setting [1] was 1 to 10 µM.

As for `COc1ccc(-c2cccc3nc(Nc4ccc(OCCN5CCCC5)c(OC)c4)nn23)cc1` [XX-066], the IC50 runs as follows: under setting [2], less than 1 µM; under setting [1], no more than 0.1 µM.

For `CCCCNc1cccc2nc(NC(=O)C3CC3)nn12` [WW-073], the IC50 lay within 1 to 10 µM under setting [2] and 1 to 10 µM under setting [1].

Compound `Oc1ccc(-c2cccc3nc(Nc4ccc(OCCN5CCCC5)cc4)nn23)cc1F` [XX-243] registered an IC50 under setting [1] of 0.1 to 1 µM.

`CC(C)NC(=O)NCc1cccc(-c2cccc3nc(Nc4ccc(OCCN5CCCC5)cc4)nn23)c1` [XX-373]: the IC50 under setting [1] lay in the range of 0.1 to 1 µM.

Under setting [1], `COc1cccc(COc2cccc(-c3cccc4nc(Nc5ccc(OCCN6CCCC6)cc5)nn34)c2)c1` [XX-335] showed an IC50 of 0.1 to 1 µM.

Compound `c1cc(-c2ccncc2)n2nc(Nc3ccc(OCCN4CCCC4)cc3)nc2c1` [XX-219] gave an IC50 under setting [1] of 1 to 10 µM.

For the compound `O=C(Nc1nc2cccc(-c3cn[nH]c3)n2n1)C1CC1` [WW-060, cyclopropanecarboxylic acid [5-(1H-pyrazol-4-yl)-[1,2,4]triazolo[1,5-a]pyridin-2-yl]-amide], the IC50 reads like this: under setting [2], 1 to 10 µM; under setting [1], 1 to 10 µM.

Compound `Cn1nccc1CNc1cccc(-c2cccc3nc(Nc4ccc(OCCN5CCCC5)cc4)nn23)c1` [XX-396] returned an IC50 under setting [1] of no more than 0.1 µM.

The compound `c1cc2nc(Nc3ccc(OCCN4CCCC4)cc3)nn2c(-c2ccc3c(c2)OCCO3)n1` [YY-010] displayed an IC50 under setting [1] of 0.1 to 1 µM.

In the case of `CN(C)CCNC(=O)c1ccc(Nc2nc3cccc(-c4ccc5occc5c4)n3n2)cc1` [XX-084], the IC50 by setting is: under setting [2], less than 1 µM; under setting [1], no more than 0.1 µM.

In turn, `O=C(NCCN1CCCC1)c1cccc(Nc2nc3cccc(-c4ccc5c(c4)OCCO5)n3n2)c1` [XX-113] showed an IC50 under setting [1] of no more than 0.1 µM.

Consider `O=C(Nc1nc2cccc(Nc3ccccc3Cl)n2n1)C1CC1` [WW-128], for which the IC50 lay within 1 to 10 µM under setting [2] and 1 to 10 µM under setting [1].

Consider `O=C(Nc1nc2cccc(-c3cccc(C(F)(F)F)c3)n2n1)C1CC1` [WW-033], for which the IC50 under setting [2] lay in the range of 1 to 10 µM and the 50% inhibitory concentration (IC50) under setting [1] lay in the range of 1 to 10 µM.

On to `c1ccc(COc2cccc(-c3cccc4nc(Nc5ccc(OCCN6CCCC6)cc5)nn34)c2)cc1` [XX-278], for which the half-inhibitory concentration (IC50) under setting [1] was 0.1 to 1 µM.

For the compound `COc1cc(Nc2nc3cccc(-c4ccc5c(c4)OCCO5)n3n2)ccc1OCCN(C)C` [XX-112], the IC50 under setting [1] lay within 0.1 to 1 µM.

Take `COc1cc(-c2cccc3nc(NC(=O)C4CC4)nn23)ccc1F` [WW-098]: the IC50 under setting [2] lay in the range of 1 to 10 µM and the IC50 under setting [1] was in the range of 1 to 10 µM.

Under setting [1], `FC(F)(F)c1cccc(Cn2cc(-c3cccc4nc(Nc5ccc(OCCN6CCCC6)cc5)nn34)cn2)c1` [XX-273] showed an IC50 of 0.1 to 1 µM.

For `COc1cc(Nc2cccc3nc(NC(=O)C4CC4)nn23)cc(OC)c1OC` [WW-161], the IC50 is, setting by setting: under setting [2], 1 to 10 µM; under setting [1], 1 to 10 µM.

For `Fc1cccc(Cn2cc(-c3cccc4nc(Nc5ccc(OCCN6CCCC6)cc5)nn34)cn2)c1` [XX-367], the IC50 under setting [1] lay in the range of 0.1 to 1 µM.
